This passage reports AC50 results from patent US9108921B2, “Therapeutic compounds and compositions” (AGIOS PHARMACEUTICALS, INC, priority 2014, dated 2015).

SMILES strings stand for the structures. Where only a bound is given, the exact number is not on record here.

For test [1], the target named is T1, PKR WT (Homo sapiens, UniProt P30613). Kind of test: PKR WT cell based AC50 assay. As to conditions: wild type PKR.
Another test addresses PKR R510Q (Homo sapiens, UniProt P30613, R510Q). Kind of test: PKR Mutant Assay, AC50 against PKR R510Q. In kind it is biochemical. As to conditions: mutant PKR R510Q enzyme. The method in brief:
(§1)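 Steps: compound added to wells, then reaction mix lacking ADP; 60 min room-temperature hold; ADP (0.22-1.65 mM) added to start; A340 monitored at room temperature via PEP/LDH/NADH coupling. Top final compound concentration 100 μM, 3-fold dilutions over 11 points.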

The target in test [2] is T1, PKR WT. Kind of test: PKR WT enzymatic AC50 assay. In kind it is biochemical. As to conditions: wild type PKR. The method in brief:
as §1

The next test addresses PKR R532W (Homo sapiens, UniProt P30613, R532W). Kind of test: PKR Mutant Assay, AC50 against PKR R532W. In kind it is biochemical. As to conditions: mutant PKR R532W enzyme. The method in brief: as §1

T1 sequence (P30613 whole entry): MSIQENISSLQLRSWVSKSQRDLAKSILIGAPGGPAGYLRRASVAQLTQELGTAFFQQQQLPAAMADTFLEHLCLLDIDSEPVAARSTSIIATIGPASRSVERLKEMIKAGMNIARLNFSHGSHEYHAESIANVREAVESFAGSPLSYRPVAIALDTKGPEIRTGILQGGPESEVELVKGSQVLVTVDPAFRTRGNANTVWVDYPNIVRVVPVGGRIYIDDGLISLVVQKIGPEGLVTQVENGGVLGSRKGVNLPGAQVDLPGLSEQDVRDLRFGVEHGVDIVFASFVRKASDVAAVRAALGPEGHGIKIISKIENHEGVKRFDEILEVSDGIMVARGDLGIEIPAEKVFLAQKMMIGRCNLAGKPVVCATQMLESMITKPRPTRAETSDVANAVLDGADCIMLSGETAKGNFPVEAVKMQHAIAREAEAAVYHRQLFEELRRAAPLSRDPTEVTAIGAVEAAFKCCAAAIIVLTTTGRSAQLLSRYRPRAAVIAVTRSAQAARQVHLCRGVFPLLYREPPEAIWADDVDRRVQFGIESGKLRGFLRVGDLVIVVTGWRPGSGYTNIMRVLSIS
Chain of PKR R532W (P30613 whole entry R532W): as the sequence (P30613 whole entry) above, with R532W counted along it
Chain of PKR R510Q (P30613 whole entry R510Q): as the sequence (P30613 whole entry) above, with R510Q counted along it

For `O=C(c1ccc(NS(=O)(=O)c2cccc(Cl)c2Cl)cc1)N1CCC(O)(Cc2ccccc2)CC1` [Compound 237, N-(4-(4-benzyl-4-hydroxypiperidine-1-carbonyl)phenyl)-2,3-dichlorobenzenesulfonamide], the concentration at half-maximal activity (AC50) on PKR WT [1], on PKR R510Q, at PKR WT [2] and on PKR R532W was 101 to 1000 nM throughout.

Consider `Cc1cc(C(=O)N2CCC(O)(c3ccccc3Cl)CC2)ccc1NS(=O)(=O)c1cccc2cccnc12` [Compound 104, N-(4-(4-(2-chlorophenyl)-4-hydroxypiperidine-1-carbonyl)-2-methylphenyl)quinoline-8-sulfonamide], for which the concentration at half-maximal activity (AC50) on PKR WT [1], at PKR R510Q, on PKR WT [2] and on PKR R532W was under 100 nM each time.

For `CC(C)CC1(O)CCN(C(=O)c2ccc(NS(=O)(=O)c3cccc4nccnc34)cc2OC(F)F)CC1` [Compound 213, N-(3-(difluoromethoxy)-4-(4-hydroxy-4-isobutylpiperidine-1-carbonyl)phenyl)quinoxaline-5-sulfonamide], the half-maximal activity concentration (AC50) was under 100 nM at PKR WT [1], 101 to 1000 nM at PKR R510Q, under 100 nM on PKR WT [2] and under 100 nM at PKR R532W.

Turning to `O=C(c1ccc(NS(=O)(=O)c2cccc3cccnc23)cc1)N1CCC(O)(c2ccc(F)cc2Cl)CC1` [Compound 111, N-[4-[4-(2-chloro-4-fluoro-phenyl)-4-hydroxy-piperidine-1-carbonyl]phenyl]quinoline-8-sulfonamide], the half-maximal activity concentration (AC50) at PKR WT [1], on PKR R510Q, on PKR WT [2] and at PKR R532W was under 100 nM each time.

Turning to `CCCC1(O)CCN(C(=O)c2ccc(NS(=O)(=O)c3cccc4cccnc34)cc2)CC1` [Compound 183, N-(4-(4-hydroxy-4-propylpiperidine-1-carbonyl)phenyl)quinoline-8-sulfonamide], the AC50 at PKR WT [1] is under 100 nM; on PKR R510Q, 101 to 1000 nM; on PKR WT [2], under 100 nM; at PKR R532W it was under 100 nM.

For the compound `CC(C)CC1(O)CCN(C(=O)c2ccc(NS(=O)(=O)c3cccc4ccc(N)nc34)cc2)CC1` [Compound 402, 2-amino-N-(4-(4-hydroxy-4-isobutylpiperidine-1-carbonyl)phenyl)quinoline-8-sulfonamide], the half-maximal activity concentration (AC50) on PKR WT [1], at PKR R510Q, at PKR WT [2] and at PKR R532W was under 100 nM in each case.

As to `COc1ncccc1C1(O)CCN(C(=O)c2ccc(NS(=O)(=O)c3cccc4cccnc34)cc2)CC1` [Compound 211, N-(4-(4-hydroxy-4-(2-methoxypyridin-3-yl)piperidine-1-carbonyl)phenyl)quinoline-8-sulfonamide], the AC50 on PKR WT [1] was 101 to 1000 nM; on PKR R510Q, 101 to 1000 nM; at PKR WT [2], under 100 nM; at PKR R532W it was under 100 nM.

On to `O=C(c1ccc(NS(=O)(=O)c2cccc3cccnc23)cc1)N1CCC(O)(c2cccnc2F)CC1` [Compound 217, N-(4-(4-(2-fluoropyridin-3-yl)-4-hydroxypiperidine-1-carbonyl)phenyl)quinoline-8-sulfonamide], for which the AC50 at PKR WT [1] is 101 to 1000 nM; at PKR R510Q, 101 to 1000 nM; on PKR WT [2], under 100 nM; on PKR R532W, 101 to 1000 nM.

For the compound `O=C(c1ccc(NS(=O)(=O)c2cccc3cccnc23)cc1)N1CCC(O)(c2cccc(OC(F)(F)F)c2)CC1` [Compound 245, N-(4-(4-hydroxy-4-(3-(trifluoromethoxy)phenyl)piperidine-1-carbonyl)phenyl)quinoline-8-sulfonamide], the AC50 on PKR WT [1] fell in the range of 1010 to 10000 nM; at PKR R510Q, 1010 to 10000 nM; on PKR WT [2], 101 to 1000 nM; at PKR R532W, 101 to 1000 nM.

On to `O=C(c1ccc(NS(=O)(=O)c2cccc3scnc23)cc1)N1CCC(O)(CC2CCC2)CC1` [Compound 212, N-(4-(4-(cyclobutylmethyl)-4-hydroxypiperidine-1-carbonyl)phenyl)benzo[d]thiazole-4-sulfonamide], for which the half-maximal activity concentration (AC50) on PKR WT [1] was under 100 nM; at PKR R510Q, 101 to 1000 nM; on PKR WT [2], under 100 nM; at PKR R532W it was under 100 nM.

Regarding `O=C(c1ccc(NS(=O)(=O)c2cccc3cccnc23)cc1)N1CCC(O)(c2ccc(F)cc2)CC1` [Compound 194, N-(4-(4-(4-fluorophenyl)-4-hydroxypiperidine-1-carbonyl)phenyl)quinoline-8-sulfonamide], the AC50 at PKR WT [1] was under 100 nM; at PKR R510Q, 101 to 1000 nM; on PKR WT [2], under 100 nM; at PKR R532W it was under 100 nM.

With `O=C(c1ccc(NS(=O)(=O)c2cccc3cccnc23)cc1)N1CCC(O)(CC2CCC2)CC1` [Compound 124, N-(4-(4-(cyclobutylmethyl)-4-hydroxypiperidine-1-carbonyl)phenyl)quinoline-8-sulfonamide], the AC50 at PKR WT [1], on PKR R510Q, at PKR WT [2] and on PKR R532W was under 100 nM each time.

As for `O=C(c1ccc(NS(=O)(=O)c2cccc3cccnc23)cc1)N1CCC(O)(c2ccccc2)CC1` [Compound 156, N-(4-(4-hydroxy-4-phenylpiperidine-1-carbonyl)phenyl)quinoline-8-sulfonamide], the half-maximal activity concentration (AC50) at PKR WT [1] is under 100 nM; at PKR R510Q it was 101 to 1000 nM; on PKR WT [2] it was under 100 nM; at PKR R532W, under 100 nM.

Turning to `O=C(c1ccc(NS(=O)(=O)c2cccc3cccnc23)cc1OC(F)(F)F)N1CCC(O)(c2ccccc2Cl)CC1` [Compound 136, N-(4-(4-(2-chlorophenyl)-4-hydroxypiperidine-1-carbonyl)-3-(trifluoromethoxy)phenyl)quinoline-8-sulfonamide], the concentration at half-maximal activity (AC50) at PKR WT [1], at PKR R510Q, at PKR WT [2] and on PKR R532W was under 100 nM in each case.

On to `Cc1nc(F)ccc1C1(O)CCN(C(=O)c2ccc(NS(=O)(=O)c3ccc(F)c4cccnc34)cc2)CC1` [Compound 229, 5-fluoro-N-(4-(4-(6-fluoro-2-methylpyridin-3-yl)-4-hydroxypiperidine-1-carbonyl)phenyl)quinoline-8-sulfonamide], for which the concentration at half-maximal activity (AC50) on PKR WT [1], at PKR R510Q, at PKR WT [2] and at PKR R532W was 101 to 1000 nM each time.

As to `CC(CC1(O)CCN(C(=O)c2ccc(NS(=O)(=O)c3cccc4sc(N)nc34)cc2)CC1)C(F)(F)F` (stereo not drawn) [Compound 429], the AC50 on PKR WT [1], on PKR R510Q, on PKR WT [2] and on PKR R532W was under 100 nM in each case.

With `CCCCC1(O)CCN(C(=O)c2ccc(NS(=O)(=O)c3cccc4cccnc34)cc2)CC1` [Compound 167, N-(4-(4-butyl-4-hydroxypiperidine-1-carbonyl)phenyl)quinoline-8-sulfonamide], the AC50 on PKR WT [1], at PKR R510Q, at PKR WT [2] and at PKR R532W was under 100 nM each time.

Consider `CNc1nc2c(S(=O)(=O)Nc3ccc(C(=O)N4CCC(O)(CC(C)C)CC4)cc3)cccc2s1` [Compound 408, N-(4-(4-hydroxy-4-isobutylpiperidine-1-carbonyl)phenyl)-2-(methylamino)benzo[d]thiazole-4-sulfonamide], for which the concentration at half-maximal activity (AC50) at PKR WT [1], on PKR R510Q, at PKR WT [2] and at PKR R532W was under 100 nM each time.

As usually defined, the AC50 is the concentration giving half of the maximal activity seen.
